Experiments:
CK1ε = CK1ε (Homo sapiens (Human), UniProt P49674); assay: CK1ε kinase assay (Caliper LABCHIP electrophoretic separation of fluoresceinated peptide substrate and product); type: biochemical; conditions: 200 pM CK1ε, 50 μM ATP, 1.5 μM peptide substrate, 22 hours at room temperature; read-out: CK1ε (IC50)
In short: (§1)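 Kinase reactions ran 22 h at room temperature, were stopped with EDTA, and phosphorylated product was separated electrophoretically from unphosphorylated fluoresceinated peptide. Compounds were tested at eleven concentrations from 10 mM DMSO stocks. IC50 by non-linear regression.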

CK1δ = CK1δ (Homo sapiens (Human), UniProt P48730); assay: CK1δ kinase assay (Caliper LABCHIP electrophoretic separation of fluoresceinated peptide substrate and product); type: biochemical; conditions: 200 pM CK1δ, 50 μM ATP, 1.5 μM peptide substrate, 22 hours at room temperature; read-out: CK1δ (IC50)
Sequence of CK1δ (P48730 whole entry): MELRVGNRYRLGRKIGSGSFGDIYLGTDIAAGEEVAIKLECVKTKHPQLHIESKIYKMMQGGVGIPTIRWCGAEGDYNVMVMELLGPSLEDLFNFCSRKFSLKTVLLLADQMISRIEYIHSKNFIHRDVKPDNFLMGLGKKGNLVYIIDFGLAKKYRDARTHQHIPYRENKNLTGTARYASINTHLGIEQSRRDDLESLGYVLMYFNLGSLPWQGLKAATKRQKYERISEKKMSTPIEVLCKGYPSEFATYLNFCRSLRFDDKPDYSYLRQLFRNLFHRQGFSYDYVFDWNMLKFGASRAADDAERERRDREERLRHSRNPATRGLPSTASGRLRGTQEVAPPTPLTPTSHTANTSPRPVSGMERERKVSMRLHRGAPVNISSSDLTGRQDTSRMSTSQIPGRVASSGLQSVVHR
In short: as §1

Sequence of CK1ε (P49674 whole entry): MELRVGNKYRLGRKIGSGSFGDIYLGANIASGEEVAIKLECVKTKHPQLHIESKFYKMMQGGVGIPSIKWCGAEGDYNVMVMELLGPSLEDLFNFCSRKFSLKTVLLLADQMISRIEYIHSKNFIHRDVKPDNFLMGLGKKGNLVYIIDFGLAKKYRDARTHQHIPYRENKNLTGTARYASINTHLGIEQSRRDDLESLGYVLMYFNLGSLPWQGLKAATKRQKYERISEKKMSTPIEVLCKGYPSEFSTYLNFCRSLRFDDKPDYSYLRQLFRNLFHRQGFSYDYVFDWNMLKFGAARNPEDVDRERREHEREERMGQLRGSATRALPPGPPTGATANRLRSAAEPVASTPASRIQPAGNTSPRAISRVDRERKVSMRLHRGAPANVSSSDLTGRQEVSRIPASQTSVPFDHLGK

| SMILES | IC50 (CK1ε) [nM] | IC50 (CK1δ) [nM] |
| --- | --- | --- |
| N#Cc1ccc(NC(=O)N2CCn3nc(-c4ccc(F)c(Cl)c4)c(C(N)=O)c3C2)cc1C(F)(F)F [Compound 204, 2-(3-Chloro-4-fluorophenyl)-N^5-(4-cyano-3-(trifluoromethyl)phenyl)-6,7-dihydropyrazolo[1,5-a] pyrazine-3,5(4H)-dicarboxamide] | 0.01 to 10 | 0.01 to 10 |
| Cc1n[nH]c2c(Cl)cc(-c3nn4c(c3C(N)=O)CN(C(=O)Nc3ccc(C#N)c(Cl)c3)CC4)cc12 [compound 321] | 0.01 to 10 | 0.01 to 10 |
| NC(=O)c1c(-c2cccc(F)c2)nn2c1CN(C(=O)Nc1ccc(Cl)cc1)CC2 [Compound 10, N^5-(4-Chlorophenyl)-2-(3-fluorophenyl)-6,7-dihydropyrazolo[1,5-a]pyrazine-3,5(4H)-dicarboxamide] | 0.01 to 10 | 0.01 to 10 |
| N#Cc1ccc(NC(=O)N2CCn3nc(-c4cc(F)cc(Cl)c4)c(C(N)=O)c3C2)cc1C(F)(F)F [Compound 218, 2-(3-Chloro-5-fluorophenyl)-N^5-(4-cyano-3-(trifluoromethyl)phenyl)-6,7-dihydropyrazolo[1,5-a] pyrazine-3,5(4H)-dicarboxamide] | 0.01 to 10 | 10 to 100 |
| Cc1ccc(-c2nn3c(c2C(N)=O)CN(C(=O)Nc2ccc4c(c2)CS(=O)(=O)C4)CC3)cc1Cl [Compound 251, 2-(3-Chloro-4-methylphenyl)-N^5-(2,2-dioxido-1,3-dihydrobenzo[c]thiophen-5-yl)-6,7-dihydropyrazolo[1,5-a] pyrazine-3,5(4H)-dicarboxamide] | 0.01 to 10 | 0.01 to 10 |
| COc1ccc(NC(=O)N2CCn3nc(-c4cccc(F)c4)c(C(N)=O)c3C2)cc1 [Compound 51, 2-(3-Fluorophenyl)-N^5-(4-methoxyphenyl)-6,7-dihydropyrazolo[1,5-a]pyrazine-3,5(4H)-dicarboxamide] | 0.01 to 10 | 0.01 to 10 |
| NC(=O)c1c(-c2cccc(Cl)c2)nn2c1CN(C(=O)Nc1ccc(Cl)c(Cl)c1)CC2 [Compound 164, 2-(3-Chlorophenyl)-N^5-(3,4-dichlorophenyl)-6,7-dihydropyrazolo[1,5-a] pyrazine-3,5(4H)-dicarboxamide] | 0.01 to 10 | 0.01 to 10 |
| N#Cc1ccc(NC(=O)N2Cc3c(C(N)=O)c(-c4ccc(F)c(Cl)c4)nn3C(C(=O)NC3CCOCC3)C2)cc1 (single isomer, unassigned) [Compound A29, 2-(3-Chloro-4-fluorophenyl)-N^5-(4-cyanophenyl)-N^7-(tetrahydro-2H-pyran-4-yl)-6,7-dihydropyrazolo[1,5-a]pyrazine-3,5,7(4H)-tricarboxamide] | 10 to 100 | 10 to 100 |
| CC(C)(C)c1cc(NC(=O)N2CCn3nc(-c4cccc(Cl)c4)c(C(N)=O)c3C2)ccc1C#N [Compound A42, N^5-(3-(tert-Butyl)-4-cyanophenyl)-2-(3-chlorophenyl)-6,7-dihydropyrazolo[1,5-a]pyrazine-3,5(4H)-dicarboxamide] | 0.01 to 10 | 0.01 to 10 |
| N#Cc1ccc(NC(=O)N2CCn3nc(-c4cc(Cl)cc(Cl)c4)c(C(N)=O)c3C2)cc1 [Compound 273, N^5-(4-Cyanophenyl)-2-(3,5-dichlorophenyl)-6,7-dihydropyrazolo[1,5-a] pyrazine-3,5(4H)-dicarboxamide] | 0.01 to 10 | 0.01 to 10 |
| NC(=O)c1c(-c2ccc(Cl)c(Cl)c2)nn2c1CN(C(=O)Nc1cc(Cl)cc(Cl)c1)CC2 [Compound 206] | 0.01 to 10 | 0.01 to 10 |
| Cc1nc2cc(-c3nn4c(c3C(N)=O)CN(C(=O)Nc3ccc(C#N)c(Cl)c3)CC4)cc(Cl)c2o1 [Compound 312, 2-(7-Chloro-2-methylbenzo[d]oxazol-5-yl)-N^5-(3-chloro-4-cyanophenyl)-6,7-dihydropyrazolo[1,5-a]pyrazine-3,5(4H)-dicarboxamide] | 0.01 to 10 | 0.01 to 10 |
| Cc1cc(F)cc(-c2nn3c(c2C(N)=O)CN(C(=O)Nc2ccc(C#N)c(Cl)c2)CC3)c1 [Compound 230, N^5-(3-Chloro-4-cyanophenyl)-2-(3-fluoro-5-methylphenyl)-6,7-dihydropyrazolo[1,5-a] pyrazine-3,5(4H)-dicarboxamide] | 0.01 to 10 | 0.01 to 10 |
| NC(=O)c1c(-c2cncc(Cl)c2)nn2c1CN(C(=O)Nc1ccc(Cl)c(Cl)c1)CC2 [Compound 299, 2-(5-Chloropyridin-3-yl)-N^5-(3,4-dichlorophenyl)-6,7-dihydropyrazolo[1,5-a]pyrazine-3,5(4H)-dicarboxamide] | 0.01 to 10 | 0.01 to 10 |
| Cc1ccc(-c2nn3c(c2C(N)=O)CN(C(=O)Nc2ccc4c(c2)OC(F)(F)O4)CC3)cc1Cl [Compound 250, 2-(3-Chloro-4-methylphenyl)-N^5-(2,2-difluorobenzo[d][1,3]dioxol-5-yl)-6,7-dihydropyrazolo[1,5-a] pyrazine-3,5(4H)-dicarboxamide] | 0.01 to 10 | 0.01 to 10 |
| Cc1cc(C)cc(-c2nn3c(c2C(N)=O)CN(C(=O)Nc2ccc(C#N)cc2)CC3)c1 [Compound 275, N^5-(4-Cyanophenyl)-2-(3,5-dimethylphenyl)-6,7-dihydropyrazolo[1,5-a] pyrazine-3,5(4H)-dicarboxamide] | 0.01 to 10 | 0.01 to 10 |
| Cn1ncc2c(F)cc(-c3nn4c(c3C(N)=O)CN(C(=O)Nc3ccc(C#N)cc3)CC4)cc21 [Compound 326, N^5-(4-Cyanophenyl)-2-(4-fluoro-1-methyl-1H-indazol-6-yl)-6,7-dihydropyrazolo[1,5-a]pyrazine-3,5(4H)-dicarboxamide] | 0.01 to 10 | 0.01 to 10 |
| N#Cc1ccc(NC(=O)N2CCn3nc(-c4cccc(F)c4)c(C(N)=O)c3C2)cc1C(F)(F)F [Compound 38, N^5-(4-Cyano-3-(trifluoromethyl)phenyl)-2-(3-fluorophenyl)-6,7-dihydropyrazolo[1,5-a]pyrazine-3,5(4H)-dicarboxamide] | 0.01 to 10 | 0.01 to 10 |
| CC1Cn2nc(-c3ccc(F)c(Cl)c3)c(C(N)=O)c2CN1C(=O)Nc1ccc(C#N)cc1 (single isomer, unassigned) [Compound 329, 2-(3-Chloro-4-fluorophenyl)-N^5-(4-cyanophenyl)-6-methyl-6,7-dihydropyrazolo[1,5-a]pyrazine-3,5(4H)-dicarboxamide] | 0.01 to 10 | 0.01 to 10 |

Results, then the compound that gave them:

| IC50 (CK1ε) [nM] | IC50 (CK1δ) [nM] | SMILES |
| --- | --- | --- |
| 0.01 to 10 | 0.01 to 10 | Cc1cc(NC(=O)N2CCn3nc(-c4ccc(F)c(Cl)c4)c(C(N)=O)c3C2)ccc1C#N [Compound A48, 2-(3-Chloro-4-fluorophenyl)-N^5-(4-cyano-3-methylphenyl)-6,7-dihydropyrazolo[1,5-a]pyrazine-3,5(4H)-dicarboxamide] |
| 0.01 to 10 | 0.01 to 10 | Cc1ccc(-c2nn3c(c2C(N)=O)CN(C(=O)Nc2ccc(C#N)cc2)CC3)cc1C [Compound 282, N^5-(4-Cyanophenyl)-2-(3,4-dimethylphenyl)-6,7-dihydropyrazolo[1,5-a] pyrazine-3,5(4H)-dicarboxamide] |
| 0.01 to 10 | 0.01 to 10 | CC(C)(C)NC(=O)N1CCn2nc(-c3ccc(Cl)c(Cl)c3)c(C(N)=O)c2C1 [Compound 129, N^5-(tert-Butyl)-2-(3,4-dichlorophenyl)-6,7-dihydropyrazolo[1,5-a]pyrazine-3,5(4H)-dicarboxamide] |
| 0.01 to 10 | 0.01 to 10 | Cc1cc(NC(=O)N2CCn3nc(-c4cnc(F)c(Cl)c4)c(C(N)=O)c3C2)ccc1C#N [Compound 294, 2-(5-Chloro-6-fluoropyridin-3-yl)-N^5-(4-cyano-3-methylphenyl)-6,7-dihydropyrazolo[1,5-a] pyrazine-3,5(4H)-dicarboxamide] |
| 0.01 to 10 | 0.01 to 10 | Cc1cc(-c2nn3c(c2C(N)=O)CN(C(=O)Nc2ccc4c(c2)OC(F)(F)O4)CC3)ccc1F [Compound 247, N^5-(2,2-Difluorobenzo [d][1,3]dioxol-5-yl)-2-(4-fluoro-3-methylphenyl)-6,7-dihydropyrazolo[1,5-a]pyrazine-3,5(4H)-dicarboxamide] |
| 0.01 to 10 | 0.01 to 10 | COc1cc(-c2nn3c(c2C(N)=O)CN(C(=O)Nc2ccc(C#N)cc2)CC3)ccc1F [Compound 280, N^5-(4-Cyanophenyl)-2-(4-fluoro-3-methoxyphenyl)-6,7-dihydropyrazolo[1,5-a] pyrazine-3,5(4H)-dicarboxamide] |
| 0.01 to 10 | 0.01 to 10 | NC(=O)c1c(-c2cccc(Cl)c2)nn2c1CN(C(=O)Nc1ccc(F)cc1)CC2 [Compound 157, 2-(3-Chlorophenyl)-N^5-(4-fluorophenyl)-6,7-dihydropyrazolo[1,5-a]pyrazine-3,5(4H)-dicarboxamide] |
| 0.01 to 10 | 0.01 to 10 | Cc1cc(-c2nn3c(c2C(N)=O)CN(C(=O)Nc2ccc(C#N)cc2)CC3)ccc1F [Compound 248, N^5-(4-Cyanophenyl)-2-(4-fluoro-3-methylphenyl)-6,7-dihydropyrazolo[1,5-a]pyrazine-3,5(4H)-dicarboxamide] |
| 0.01 to 10 | 0.01 to 10 | NC(=O)c1c(-c2ccc(F)c(Cl)c2)nn2c1CN(C(=O)Nc1ccc(Cl)c(Cl)c1)CC2 [Compound 182, 2-(3-Chloro-4-fluorophenyl)-N^5-(3,4-dichlorophenyl)-6,7-dihydropyrazolo[1,5-a] pyrazine-3,5(4H)-dicarboxamide] |
| 0.01 to 10 | 0.01 to 10 | CS(=O)(=O)c1ccc(NC(=O)N2CCn3nc(-c4ccc(F)c(Cl)c4)c(C(N)=O)c3C2)nc1 [Compound 195, 2-(3-Chloro-4-fluorophenyl)-N^5-(5-(methylsulfonyl)pyridin-2-yl)-6,7-dihydropyrazolo[1,5-a] pyrazine-3,5(4H)-dicarboxamide] |
| 0.01 to 10 | 0.01 to 10 | NC(=O)c1c(-c2cccc(F)c2)nn2c1CN(C(=O)Nc1ccc3ccccc3c1)CC2 [Compound 59, 2-(3-Fluorophenyl)-N^5-(naphthalen-2-yl)-6,7-dihydropyrazolo[1,5-a]pyrazine-3,5(4H)-dicarboxamide] |
